For data set [1], the target named is T1, Adrenergic receptor alpha-2 (Homo sapiens, UniProt P08913+P18825+P18089).
T1 sequence (P08913 whole entry): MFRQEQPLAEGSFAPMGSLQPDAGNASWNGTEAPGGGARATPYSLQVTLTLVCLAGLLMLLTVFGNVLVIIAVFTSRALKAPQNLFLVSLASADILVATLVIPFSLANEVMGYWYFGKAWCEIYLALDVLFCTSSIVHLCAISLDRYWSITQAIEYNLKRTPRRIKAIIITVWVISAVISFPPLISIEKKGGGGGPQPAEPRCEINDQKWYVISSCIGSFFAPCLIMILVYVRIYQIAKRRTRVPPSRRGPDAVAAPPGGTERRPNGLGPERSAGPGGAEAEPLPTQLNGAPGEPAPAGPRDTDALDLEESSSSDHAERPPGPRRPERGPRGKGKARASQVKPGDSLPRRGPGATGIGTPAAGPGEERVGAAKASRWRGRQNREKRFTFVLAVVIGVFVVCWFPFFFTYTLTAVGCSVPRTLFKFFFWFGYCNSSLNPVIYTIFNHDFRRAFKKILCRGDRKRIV
T1 sequence (P18825 whole entry): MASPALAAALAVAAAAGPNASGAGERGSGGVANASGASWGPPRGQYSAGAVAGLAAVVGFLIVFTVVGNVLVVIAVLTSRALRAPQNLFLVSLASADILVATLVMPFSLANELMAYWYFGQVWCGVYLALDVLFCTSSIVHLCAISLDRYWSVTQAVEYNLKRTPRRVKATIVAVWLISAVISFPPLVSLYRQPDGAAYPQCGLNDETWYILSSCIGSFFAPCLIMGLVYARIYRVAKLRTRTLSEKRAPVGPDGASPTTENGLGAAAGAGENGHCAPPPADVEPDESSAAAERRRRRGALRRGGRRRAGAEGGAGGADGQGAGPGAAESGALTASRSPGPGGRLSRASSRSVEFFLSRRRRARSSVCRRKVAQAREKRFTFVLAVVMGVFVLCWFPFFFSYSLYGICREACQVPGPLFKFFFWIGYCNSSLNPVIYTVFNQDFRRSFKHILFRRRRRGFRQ
T1 sequence (P18089 whole entry): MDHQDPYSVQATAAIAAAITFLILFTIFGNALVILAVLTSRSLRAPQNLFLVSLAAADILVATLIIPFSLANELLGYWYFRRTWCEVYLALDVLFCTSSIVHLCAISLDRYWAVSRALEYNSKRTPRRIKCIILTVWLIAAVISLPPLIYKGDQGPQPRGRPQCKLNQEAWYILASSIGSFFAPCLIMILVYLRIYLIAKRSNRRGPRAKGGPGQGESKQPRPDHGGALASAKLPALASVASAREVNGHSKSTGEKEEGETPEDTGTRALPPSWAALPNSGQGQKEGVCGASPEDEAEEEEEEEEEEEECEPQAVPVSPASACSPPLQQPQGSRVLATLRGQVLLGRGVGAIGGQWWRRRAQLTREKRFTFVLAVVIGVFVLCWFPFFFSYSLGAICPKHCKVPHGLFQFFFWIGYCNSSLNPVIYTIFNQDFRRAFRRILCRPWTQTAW
Briefly: Agonist activity at human recombinant Alpha-2 adrenergic receptor expressed in CHOK1 cells after 30 mins by [35S]GTPgammaS binding assay. It is filed as functional, cell-based. To be noted: cho-k1. Background: GTPγS is a poorly hydrolysed GTP analogue; its binding reports G protein activation.

Data set [2] concerns Rattus norvegicus. The experiment in a line: Neurotoxicity in Sprague-Dawley rat assessed as induction of sedative-hypnotic state at 10 to 500 ug/kg, ip after 30 mins by LORR test. It is filed as toxicity, organism-based. To be noted: in vivo, 0.5 h.
Data set [3] has as its system Rattus norvegicus. Briefly: Neurotoxicity in Sprague-Dawley rat assessed as induction of hind limb flexion at 1000 to 1500 ug/kg, ip after 15 to 30 mins by LORR test. It is filed as toxicity, organism-based, Hindlimb. To be noted: in vivo.
Data set [4] has as its system Rattus norvegicus. Briefly: Neurotoxicity in Sprague-Dawley rat assessed as exploratory behaviour changes at 10 to 2000 ug/kg, ip after 30 mins by LORR test. It is filed as toxicity, organism-based. To be noted: in vivo, 0.5 h.
Data set [5] relates to Rattus norvegicus. The experiment in a line: Neurotoxicity in Sprague-Dawley rat assessed as induction of forpaw grasping reflex at 1000 to 1500 ug/kg, ip after 15 to 30 mins by LORR test. To be noted: in vivo. It is filed as toxicity, organism-based.
Data set [6] concerns Rattus norvegicus. The experiment in a line: Neurotoxicity in Sprague-Dawley rat assessed as induction of resistance to lateral push at 1000 to 1500 ug/kg, ip after 15 to 30 mins by LORR test. To be noted: in vivo. Format: toxicity, organism-based.

Our source for the EC50 and Activity values is ChEMBL document CHEMBL3797164, “Transfer of SAR information from hypotensive indazole to indole derivatives acting at α-adrenergic receptors: In vitro and in vivo studies” (Eur J Med Chem, 2016).

With `Cl.Clc1cccc2ccn(CC3=NCCN3)c12`, the 50% effective concentration (EC50) in data set [1] was found to be 3.6 µM. In addition, the Activity entry in the data set with Rattus norvegicus [2] is “Non-toxic”; with Rattus norvegicus [3], “Toxic”; in the data set with Rattus norvegicus [4], “Non-toxic”; in the data set on Rattus norvegicus [5], “Non-toxic”; in the data set on Rattus norvegicus [6], “Non-toxic”.
In the case of `Br.Cc1cccc2ccn(CC3=NCCN3)c12`, in data set [1], the EC50 is 0.0079 µM.

A word on the EC50: it is the concentration at which the effect is half-maximal.
